Data reported in ChEMBL document CHEMBL1201862, “PubChem BioAssay data set” (2004).
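Step 1: Grow cells in 96-well plates. Step 2: Expose to compound for 48 hours at 5 concentrations. Step 3: Interpolate endpoints linearly; if unreached, use highest concentration. GI50 is the concentration that inhibits growth by half.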 Calls of active or inactive are those of the source. Rule as the data show it: active = GI50 up to about 1.1 µM and inactive = higher.

Columns and labels:
Test in all cases: growth of human tumour cells (NCI), 48 h
A549 = system: A549
ACHN = system: ACHN
EKVX = system: EKVX
HCT-116 = system: HCT-116
HOP-92 = system: HOP-92
HT-29 = system: HT-29
MCF7 = system: MCF7
MOLT-4 = system: MOLT-4
Malme-3M = system: Malme-3M
NCI-H23 = system: NCI-H23
OVCAR-5 = system: OVCAR-5
OVCAR-8 = system: OVCAR-8
RPMI-8226 = system: RPMI-8226
RXF 393 = system: RXF 393
SF-295 = system: SF-295
SNB-75 = system: SNB-75
SR = system: SR
SW-620 = system: SW-620
MDA-N = system: MDA-N

Measured: GI50

FC(F)(F)c1ccc(/N=C/C=C(/Nc2ccc(C(F)(F)F)cc2)c2ccc(Cl)cc2)cc1
inactive: A549 12.5 µM | ACHN 10.1 µM | EKVX 15.9 µM | HCT-116 4.79 µM | HOP-92 16.5 µM | HT-29 5.04 µM | MCF7 17.5 µM | MOLT-4 4.06 µM | Malme-3M 19.4 µM | NCI-H23 12.2 µM | OVCAR-5 17.9 µM | OVCAR-8 15.6 µM | RPMI-8226 4.72 µM | RXF 393 10.1 µM | SF-295 15.8 µM | SNB-75 17.6 µM | SR 3.47 µM | SW-620 11 µM

CCOC(=O)c1sc2c(c1OC(=O)c1ccco1)c(=O)n(-c1ccccc1)c(=S)n2-c1ccccc1
inactive: A549 38.6 µM | ACHN 27.5 µM | EKVX 21.3 µM | HCT-116 29.7 µM | HOP-92 30.2 µM | HT-29 55.2 µM | MCF7 41.3 µM | MDA-N 41.7 µM | MOLT-4 17.2 µM | Malme-3M 15.8 µM | NCI-H23 28.7 µM | OVCAR-5 > 100 µM | OVCAR-8 26.1 µM | RPMI-8226 30.6 µM | RXF 393 22.1 µM | SF-295 > 100 µM | SNB-75 25.9 µM | SW-620 42.1 µM

Cc1ccc(CC[PH](=O)CCc2ccc(C)nc2)cn1
inactive: ACHN > 100 µM | EKVX > 100 µM | HCT-116 > 100 µM | HOP-92 > 100 µM | HT-29 > 100 µM | MCF7 > 100 µM | MDA-N > 100 µM | MOLT-4 > 100 µM | Malme-3M > 100 µM | NCI-H23 > 100 µM | OVCAR-5 > 100 µM | OVCAR-8 > 100 µM | RPMI-8226 > 100 µM | RXF 393 > 100 µM | SF-295 > 100 µM | SR > 100 µM | SW-620 > 100 µM

CCc1cc2c(Nc3ccccc3)c3c(nc2s1)CCCC3
inactive: A549 8.53 µM | ACHN 94.2 µM | EKVX > 100 µM | HCT-116 9.35 µM | HOP-92 16.7 µM | MOLT-4 3.23 µM | Malme-3M > 100 µM | OVCAR-5 > 100 µM | OVCAR-8 > 100 µM | RPMI-8226 3.71 µM | RXF 393 22.4 µM | SF-295 28.8 µM | SNB-75 7.46 µM | SR 5.3 µM | SW-620 80.5 µM

COC(=O)CCC(=O)CC1CC(=O)C2CCCN12 (configuration not stated)
inactive: A549 > 100 µM | ACHN > 100 µM | EKVX > 100 µM | HCT-116 > 100 µM | HOP-92 > 100 µM | HT-29 > 100 µM | MOLT-4 > 100 µM | Malme-3M > 100 µM | NCI-H23 > 100 µM | OVCAR-5 > 100 µM | OVCAR-8 > 100 µM | RPMI-8226 > 100 µM | RXF 393 > 100 µM | SF-295 > 100 µM | SNB-75 > 100 µM | SR > 100 µM | SW-620 > 100 µM

CC(=O)OC1CC2C(C)(C)OC(=O)CC(OC(C)=O)[C@]2(C)C2CCC3(C)C(=CCC3c3ccoc3)[C@]12C (some centres not stated)
inactive: A549 19.4 µM | ACHN 25.1 µM | EKVX 15.5 µM | HCT-116 14.4 µM | HOP-92 6.32 µM | HT-29 15.7 µM | MOLT-4 5.9 µM | Malme-3M 25.6 µM | NCI-H23 27.2 µM | OVCAR-5 32.8 µM | OVCAR-8 18.1 µM | RPMI-8226 18.2 µM | RXF 393 24 µM | SF-295 18 µM | SNB-75 18.3 µM | SR 8.15 µM | SW-620 32.1 µM

CCCN1C(=O)CNC(=O)c2[nH]cnc21
inactive: A549 > 100 µM | ACHN > 100 µM | EKVX > 100 µM | HCT-116 > 100 µM | HOP-92 > 100 µM | HT-29 > 100 µM | MOLT-4 > 100 µM | Malme-3M > 100 µM | NCI-H23 > 100 µM | OVCAR-5 > 100 µM | OVCAR-8 > 100 µM | RPMI-8226 > 100 µM | RXF 393 > 100 µM | SF-295 > 100 µM | SNB-75 > 100 µM | SR > 100 µM | SW-620 > 100 µM

COc1ccc(-c2cc(=O)c3c(O)c(OC)c(O)c(OC)c3o2)cc1OC
inactive: A549 72.1 µM | ACHN 33 µM | EKVX > 100 µM | HCT-116 57 µM | HOP-92 25.1 µM | HT-29 > 100 µM | MOLT-4 42.3 µM | Malme-3M > 100 µM | NCI-H23 > 100 µM | OVCAR-8 > 100 µM | RPMI-8226 46 µM | RXF 393 14.1 µM | SF-295 > 100 µM | SNB-75 21.8 µM | SR 31.2 µM | SW-620 > 100 µM

COC1O[C@@H]2CCN3C(=O)[C@@H](OC(=O)c4ccc([N+](=O)[O-])cc4)[C@H]1C23 (some centres not stated)
inactive: A549 > 100 µM | ACHN > 100 µM | EKVX > 100 µM | HCT-116 > 100 µM | HOP-92 > 100 µM | HT-29 > 100 µM | MCF7 > 100 µM | MOLT-4 > 100 µM | NCI-H23 > 100 µM | OVCAR-5 > 100 µM | OVCAR-8 > 100 µM | RPMI-8226 > 100 µM | RXF 393 > 100 µM | SF-295 > 100 µM | SNB-75 > 100 µM | SR > 100 µM | SW-620 > 100 µM

O=S(=O)(/N=S(/Nc1ccccc1)C(F)(F)Cl)c1ccccc1 (configuration not stated)
inactive: A549 > 100 µM | ACHN > 100 µM | EKVX > 100 µM | HCT-116 > 100 µM | HOP-92 > 100 µM | HT-29 > 100 µM | MCF7 > 100 µM | MDA-N > 100 µM | MOLT-4 > 100 µM | Malme-3M > 100 µM | NCI-H23 > 100 µM | OVCAR-5 > 100 µM | OVCAR-8 > 100 µM | RPMI-8226 > 100 µM | RXF 393 > 100 µM | SF-295 > 100 µM | SNB-75 > 100 µM | SR > 100 µM | SW-620 > 100 µM

COc1cc2ccc3c4cc(OC)c(OC(C)C)cc4c[n+](C)c3c2cc1OC
inactive: A549 > 100 µM | ACHN > 100 µM | EKVX > 100 µM | HCT-116 > 100 µM | HOP-92 36.7 µM | HT-29 > 100 µM | MOLT-4 > 100 µM | Malme-3M 48.9 µM | NCI-H23 95.7 µM | OVCAR-5 > 100 µM | OVCAR-8 39.2 µM | RPMI-8226 > 100 µM | RXF 393 27.7 µM | SF-295 > 100 µM | SNB-75 34 µM | SR 47.8 µM | SW-620 71.6 µM

Cn1cnc(S[C@H]2[C@H]3C(=O)C=C4S[C@H]5C[C@]42C2=C(N5)C(=O)c4[nH]cc5c4C2=[N+]3CC5)c1C[C@H](N)C(=O)O
inactive: A549 20.4 µM | ACHN 14.8 µM | EKVX 17.7 µM | HCT-116 3.7 µM | HOP-92 18.9 µM | HT-29 4.09 µM | MOLT-4 12.7 µM | Malme-3M 3.72 µM | NCI-H23 10.7 µM | OVCAR-5 15.1 µM | OVCAR-8 13.6 µM | RPMI-8226 16.7 µM | RXF 393 22.1 µM | SF-295 15.8 µM | SNB-75 18.7 µM | SR 19.1 µM | SW-620 6.14 µM

Cc1c2ccncc2c(C)c2c1[nH]c1ccc(OC(C)C)cc12
active: HCT-116 0.736 µM | MOLT-4 0.59 µM | OVCAR-8 1.04 µM | SR 0.668 µM | SW-620 0.547 µM
inactive: A549 1.52 µM | ACHN 1.29 µM | EKVX 1.4 µM | HOP-92 1.51 µM | HT-29 1.32 µM | Malme-3M 1.58 µM | NCI-H23 1.53 µM | OVCAR-5 1.48 µM | RPMI-8226 1.99 µM | RXF 393 1.33 µM | SF-295 1.36 µM | SNB-75 1.83 µM

CCOC(=O)/C=C/CCC(C)(C)COC(C)=O
inactive: A549 > 10 µM | ACHN > 10 µM | EKVX > 10 µM | HCT-116 > 10 µM | HOP-92 > 10 µM | HT-29 > 10 µM | MCF7 > 10 µM | MDA-N > 10 µM | MOLT-4 > 10 µM | NCI-H23 > 10 µM | OVCAR-5 > 10 µM | OVCAR-8 > 10 µM | RPMI-8226 > 10 µM | RXF 393 > 10 µM | SF-295 > 10 µM | SNB-75 > 10 µM | SR > 10 µM | SW-620 > 10 µM

COc1ccc(/C=C2/NC(=S)N=C2Cl)cc1
inactive: A549 85.1 µM | ACHN > 100 µM | EKVX > 100 µM | HCT-116 > 100 µM | HOP-92 > 100 µM | HT-29 > 100 µM | MCF7 > 100 µM | MDA-N > 100 µM | MOLT-4 > 100 µM | Malme-3M > 100 µM | NCI-H23 > 100 µM | OVCAR-5 21.5 µM | OVCAR-8 > 100 µM | RPMI-8226 > 100 µM | RXF 393 > 100 µM | SF-295 > 100 µM | SNB-75 > 100 µM | SR > 100 µM | SW-620 > 100 µM

O=C(Nc1cccc(C(F)(F)F)c1)O/N=C(/Cl)CCl
inactive: A549 > 100 µM | ACHN > 100 µM | EKVX > 100 µM | HCT-116 55.7 µM | HOP-92 22 µM | HT-29 51.9 µM | MCF7 21.6 µM | MDA-N 71.8 µM | MOLT-4 28.2 µM | Malme-3M > 100 µM | NCI-H23 47.3 µM | OVCAR-5 21.8 µM | OVCAR-8 > 100 µM | RPMI-8226 27 µM | SF-295 49.5 µM | SNB-75 > 100 µM | SR 22.6 µM | SW-620 38.5 µM
